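Results reflect a 48-hour exposure of cells in 96-well plates to compound at five concentrations. GI50 = concentration required for 50% inhibition of growth.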 The source made the active and inactive calls. No stated cut-off is given here; in the data, active = GI50 up to about 1.1 µM and inactive = higher.
Tests used:
Test in all cases: growth of human tumour cells (NCI), 48 h
786-0 = system: 786-0
A549 = system: A549
ACHN = system: ACHN
CAKI-1 = system: CAKI-1
COLO 205 = system: COLO 205
DLD-1 = system: DLD-1
DMS-114 = system: DMS-114
DMS-273 = system: DMS-273
EKVX = system: EKVX
HCC 2998 = system: HCC 2998
HCT-116 = system: HCT-116
HCT-15 = system: HCT-15
HOP-18 = system: HOP-18
HOP-92 = system: HOP-92
HT-29 = system: HT-29
K562 = system: K562
KM-20L2 = system: KM-20L2
KM12 = system: KM12
LXFL 529 = system: LXFL 529
M14 = system: M14
M19-MEL = system: M19-MEL
MOLT-4 = system: MOLT-4
Malme-3M = system: Malme-3M
NCI-H226 = system: NCI-H226
NCI-H23 = system: NCI-H23
NCI-H460 = system: NCI-H460
NCI-H522 = system: NCI-H522
OVCAR-3 = system: OVCAR-3
OVCAR-4 = system: OVCAR-4
OVCAR-5 = system: OVCAR-5
OVCAR-8 = system: OVCAR-8
RPMI-8226 = system: RPMI-8226
RXF 393 = system: RXF 393
RXF 631 = system: RXF 631
SF-295 = system: SF-295
SF-539 = system: SF-539
SK-MEL-28 = system: SK-MEL-28
SK-MEL-2 = system: SK-MEL-2
SK-MEL-5 = system: SK-MEL-5
SN12C = system: SN12C
SNB-19 = system: SNB-19
SNB-75 = system: SNB-75
SNB-78 = system: SNB-78
SR = system: SR
SW-620 = system: SW-620
TK-10 = system: TK-10
U-251 = system: U-251
UACC-257 = system: UACC-257
UO-31 = system: UO-31
XF498 = system: XF498
A498 = system: A498
CCRF-CEM = system: CCRF-CEM
HL-60 = system: HL-60
HOP-62 = system: HOP-62
IGROV-1 = system: IGROV-1
LOX IMVI = system: LOX IMVI
SF-268 = system: SF-268
SK-OV-3 = system: SK-OV-3
UACC-62 = system: UACC-62

CC(C)(C)c1cc(C(OCCl)(C(F)(F)F)C(F)(F)F)c2c(c1)C(C(F)(F)F)(C(F)(F)F)OC21c2ccccc2C(=O)c2ccccc21
GI50 (786-0): > 100 µM (inactive) | GI50 (A549): > 100 µM (inactive) | GI50 (ACHN): > 100 µM (inactive) | GI50 (CAKI-1): > 100 µM (inactive) | GI50 (COLO 205): > 100 µM (inactive) | GI50 (DLD-1): > 100 µM (inactive) | GI50 (DMS-114): > 100 µM (inactive) | GI50 (DMS-273): > 100 µM (inactive) | GI50 (EKVX): > 100 µM (inactive) | GI50 (HCC 2998): > 100 µM (inactive) | GI50 (HCT-116): > 100 µM (inactive) | GI50 (HCT-15): > 100 µM | GI50 (HOP-18): > 100 µM (inactive) | GI50 (HOP-92): < 0.01 µM (active) | GI50 (HT-29): > 100 µM (inactive) | GI50 (K562): > 100 µM (inactive) | GI50 (KM-20L2): > 100 µM (inactive) | GI50 (KM12): > 100 µM (inactive) | GI50 (LXFL 529): > 100 µM (inactive) | GI50 (M14): > 100 µM (inactive) | GI50 (M19-MEL): > 100 µM (inactive) | GI50 (MOLT-4): > 100 µM (inactive) | GI50 (Malme-3M): > 100 µM (inactive) | GI50 (NCI-H226): > 100 µM (inactive) | GI50 (NCI-H23): > 100 µM (inactive) | GI50 (NCI-H460): > 100 µM (inactive) | GI50 (NCI-H522): > 100 µM (inactive) | GI50 (OVCAR-3): > 100 µM (inactive) | GI50 (OVCAR-4): > 100 µM (inactive) | GI50 (OVCAR-5): > 100 µM (inactive) | GI50 (OVCAR-8): > 100 µM (inactive) | GI50 (RPMI-8226): > 100 µM (inactive) | GI50 (RXF 393): > 100 µM (inactive) | GI50 (RXF 631): > 100 µM (inactive) | GI50 (SF-295): > 100 µM (inactive) | GI50 (SF-539): > 100 µM (inactive) | GI50 (SK-MEL-28): > 100 µM (inactive) | GI50 (SK-MEL-2): > 100 µM (inactive) | GI50 (SK-MEL-5): > 100 µM (inactive) | GI50 (SN12C): > 100 µM (inactive) | GI50 (SNB-19): > 100 µM (inactive) | GI50 (SNB-75): > 100 µM (inactive) | GI50 (SNB-78): > 100 µM (inactive) | GI50 (SR): > 100 µM (inactive) | GI50 (SW-620): > 100 µM (inactive) | GI50 (TK-10): > 100 µM (inactive) | GI50 (U-251): > 100 µM (inactive) | GI50 (UACC-257): > 100 µM (inactive) | GI50 (UO-31): > 100 µM (inactive) | GI50 (XF498): 34 µM (inactive)

O=C1c2c(n(Cc3ccccc3)c(=O)n2Cc2ccccc2)C(=O)N1Cc1ccccc1
GI50 (786-0): > 100 µM (inactive) | GI50 (A498): 70 µM (inactive) | GI50 (A549): 41.9 µM (inactive) | GI50 (ACHN): 91.6 µM (inactive) | GI50 (CAKI-1): 65.8 µM (inactive) | GI50 (CCRF-CEM): 9.2 µM (inactive) | GI50 (COLO 205): > 100 µM (inactive) | GI50 (DLD-1): 63 µM (inactive) | GI50 (DMS-114): 34.6 µM (inactive) | GI50 (DMS-273): 31.4 µM (inactive) | GI50 (EKVX): 66.8 µM (inactive) | GI50 (HCC 2998): 61.4 µM (inactive) | GI50 (HCT-116): 40.3 µM (inactive) | GI50 (HCT-15): 47.8 µM | GI50 (HL-60): 0.782 µM (active) | GI50 (HOP-18): > 100 µM (inactive) | GI50 (HOP-62): > 100 µM (inactive) | GI50 (HOP-92): > 100 µM (inactive) | GI50 (HT-29): 82.2 µM (inactive) | GI50 (IGROV-1): 93.5 µM (inactive) | GI50 (K562): 58.1 µM (inactive) | GI50 (KM-20L2): 52.7 µM (inactive) | GI50 (KM12): 55.5 µM (inactive) | GI50 (LOX IMVI): 32.4 µM (inactive) | GI50 (LXFL 529): 35 µM (inactive) | GI50 (M14): > 100 µM (inactive) | GI50 (M19-MEL): > 100 µM (inactive) | GI50 (MOLT-4): 54.6 µM (inactive) | GI50 (Malme-3M): > 100 µM (inactive) | GI50 (NCI-H226): 92.7 µM (inactive) | GI50 (NCI-H23): 38.6 µM (inactive) | GI50 (NCI-H460): 72.4 µM (inactive) | GI50 (NCI-H522): 56.1 µM (inactive) | GI50 (OVCAR-3): 49.2 µM (inactive) | GI50 (OVCAR-4): 46.5 µM (inactive) | GI50 (OVCAR-5): > 100 µM (inactive) | GI50 (OVCAR-8): > 100 µM (inactive) | GI50 (RPMI-8226): 22.8 µM (inactive) | GI50 (RXF 393): 37.9 µM (inactive) | GI50 (RXF 631): 62.7 µM (inactive) | GI50 (SF-268): 64.1 µM (inactive) | GI50 (SF-295): 72.3 µM (inactive) | GI50 (SF-539): > 100 µM (inactive) | GI50 (SK-MEL-28): > 100 µM (inactive) | GI50 (SK-MEL-2): 46.3 µM (inactive) | GI50 (SK-MEL-5): 50.5 µM (inactive) | GI50 (SK-OV-3): > 100 µM (inactive) | GI50 (SN12C): 65.5 µM (inactive) | GI50 (SNB-19): 89.1 µM (inactive) | GI50 (SNB-75): 64.7 µM (inactive) | GI50 (SNB-78): > 100 µM (inactive) | GI50 (SW-620): 47.9 µM (inactive) | GI50 (TK-10): > 100 µM (inactive) | GI50 (U-251): 50.4 µM (inactive) | GI50 (UACC-257): 67.6 µM (inactive) | GI50 (UACC-62): 41.4 µM (inactive) | GI50 (UO-31): 50.2 µM (inactive) | GI50 (XF498): 16.4 µM (inactive)

Reference: ChEMBL document CHEMBL1201862, “PubChem BioAssay data set” (2004)
